Consider 20 compounds from PMC5681660, “Reduced hepatitis B and D viral entry using clinically applied drugs as novel inhibitors of the bile acid transporter NTCP” (Scientific Reports, 2017).

Structures can show the parent of a compound that is named as a salt.

The target of this assay is T1, human NTCP (Homo sapiens, UniProt Q14973).
T1 sequence (Q14973 1-349): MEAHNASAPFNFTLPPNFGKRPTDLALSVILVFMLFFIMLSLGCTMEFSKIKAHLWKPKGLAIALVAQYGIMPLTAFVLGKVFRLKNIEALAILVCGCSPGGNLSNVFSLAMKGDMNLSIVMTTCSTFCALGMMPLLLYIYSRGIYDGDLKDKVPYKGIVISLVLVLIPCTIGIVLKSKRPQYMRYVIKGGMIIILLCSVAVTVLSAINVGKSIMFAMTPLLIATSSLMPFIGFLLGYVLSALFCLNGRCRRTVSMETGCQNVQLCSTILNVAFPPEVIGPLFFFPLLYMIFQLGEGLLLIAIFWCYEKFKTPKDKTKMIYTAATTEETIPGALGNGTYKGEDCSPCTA
The experiment in a line: Screening taurocholate uptake assay (96-well, [14C]taurocholate, 10 µM drug). As to conditions: for B-score functional assay: screening taurocholate uptake, 10 µM drug.

The mark [1] stands for this setting: combined ranking of functional and binding screening assays.
Where [2] appears, read: ranking over the functional and the binding screening assay.

Compound `CCOC(=O)OC(C)OC(=O)[C@@H]1N2C(=O)[C@@H](NC(=O)[C@H](N)c3ccccc3)[C@H]2SC1(C)C` (stereo partly shown) [Bacampicillin hydrochloride] came in with a B-score functional assay of -0.626. The Ranking score under setting [1] is 500.635.
`Nc1ccc(/N=N/c2ccccc2)c(N)n1` [Phenazopyridine hydrochloride] came in with a B-score functional assay of -0.376. The compound further yielded a Ranking score under setting [2] of 182.587.
Regarding `CNC[C@H](O)[C@@H](O)[C@H](O)[C@H](O)CO` [Meglumine], the B-score functional assay is on record as -3.271. Under setting [2], the Ranking score is 72.6498.
In the same order, the values of `CN(Cc1cc(Br)cc(Br)c1N)C1CCCCC1` [Bromhexine hydrochloride] are -0.767 and 149.492.
The compound `Nc1ccc(S(=O)(=O)NC(=O)c2ccccc2)cc1` [Sulfabenzamide] showed a B-score functional assay of 0.164. The Ranking score under setting [1] is reported as 563.848.
For `NC(=O)OCC(COC(N)=O)c1ccccc1` [Felbamate] the same measures were 0.213 and 558.78.
In the same order, the values of `N=C(N)N/N=C/c1c(Cl)cccc1Cl` [Guanabenz acetate] are -1.531 and 467.541.
The compound `C[C@]12CC[C@@H]3c4ccc(OS(=O)(=O)O)cc4CC[C@H]3[C@@H]1CCC2=O` [Estropipate] came in with a B-score functional assay of -4.027. The Ranking score under setting [2] turned out to be 54.037.
For `COC(=O)[C@@H]1[C@H]2C[C@H]3c4[nH]c5ccccc5c4CCN3C[C@@H]2CC[C@@H]1O` [Yohimbine hydrochloride] the same measures were -1.965 and 229.785.
For `C[C@]12CC[C@@H]3c4ccc(O)cc4CC[C@H]3[C@@H]1C[C@@H](O)[C@@H]2O` [Estriol], the B-score functional assay is recorded as 0.325. In addition, the Ranking score under setting [1] is given as 589.644.
For `CC(C)NCC(O)COc1ccc(CCOCC2CC2)cc1` (stereo not shown) [Betaxolol hydrochloride] the same measures were 0.038 and 583.493.
For `O=c1cc(-c2ccc(O)c(O)c2)oc2cc(O)cc(O)c12` [Luteolin] the same measures were -0.024 and 585.624.
In turn, `[H]/N=C(\N/C(=N/[H])NCCCCCCNC(=N)NC(=N)Nc1ccc(Cl)cc1)Nc1ccc(Cl)cc1` [Chlorhexidine] yielded a B-score functional assay of 0.062. Also, the Ranking score under setting [2] amounted to 185.515.
For `c1ccc(C2CN3CCSC3=N2)cc1` (stereo not shown) [Tetramisole hydrochloride] the same measures were -2.419 and 250.531.
For the compound `NS(=O)(=O)c1cc(C2(O)NC(=O)c3ccccc32)ccc1Cl` (stereo not shown) [Chlorthalidone], the B-score functional assay was -1.121. In addition, under setting [1], the Ranking score was determined as 532.184.
In the same order, the values of `CCN(C(C)=O)c1cccc(-c2ccnc3c(C#N)cnn23)c1` [Zaleplon] are 1.229 and 584.018.
In turn, `Cc1cc(O)c(C(=O)N[C@@H](C(=O)N[C@@H]2C(=O)N3C(C(=O)O)=C(CSc4nnnn4C)CS[C@H]23)c2ccc(O)cc2)cn1` [Cefpiramide] had a B-score functional assay of -1.403. This compound had a Ranking score under setting [2] of 261.897.
The compound `N#Cc1cc(NC(=O)C(=O)O)c(Cl)c(NC(=O)C(=O)O)c1` [Lodoxamide] yielded a B-score functional assay of -0.138. Moreover, the Ranking score under setting [1] worked out at 609.015.
Take `O=C(Nc1ccc([N+](=O)[O-])cc1Cl)c1cc(Cl)ccc1O` [Niclosamide]: the B-score functional assay is on record as -3.546. This compound yielded a Ranking score under setting [2] of 178.326.
In the same order, the values of `CCOC(=O)O[C@]1(C(=O)COC(=O)CC)CC[C@H]2[C@@H]3CCC4=CC(=O)C=C[C@]4(C)[C@H]3[C@@H](O)C[C@@]21C` [Prednicarbate] are -1.448 and 140.036.
